Assays:
[1] = biological target: PI3 kinase alpha (Homo sapiens, UniProt P42336); test: PI3K ATP depletion assay (Biological Method 1, Assay 3; KinaseGlo luminescence); format: biochemical; conditions: ATP depletion assay; read-out: PI3 Kinase Alpha, IC50
Method in brief: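 Compound in DMSO was mixed with 10 nM PI3 kinase and 5 μg/mL phosphatidylinositol, and the reaction was started with 2 μM ATP. It ran to about 50% ATP depletion and was stopped with KinaseGlo.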

[2] = test system: A2780 ovarian cancer cells; test: Cellular proliferation in A2780 cells, Cell Titer Glo (Biological Method 4); format: cell-based; conditions: Homo sapiens; ovarian cancer cell line A2780
Method in brief: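 A2780 cells seeded at 1,000/well in DMEM with 10% FBS, at least 2 h before compound, then exposed 72 h at 37 °C, 5% CO2. Viable cells measured by Cell Titer Glo luminescence; EC50 calculated from duplicate conditions.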

Chain of PI3 kinase alpha (P42336 whole entry): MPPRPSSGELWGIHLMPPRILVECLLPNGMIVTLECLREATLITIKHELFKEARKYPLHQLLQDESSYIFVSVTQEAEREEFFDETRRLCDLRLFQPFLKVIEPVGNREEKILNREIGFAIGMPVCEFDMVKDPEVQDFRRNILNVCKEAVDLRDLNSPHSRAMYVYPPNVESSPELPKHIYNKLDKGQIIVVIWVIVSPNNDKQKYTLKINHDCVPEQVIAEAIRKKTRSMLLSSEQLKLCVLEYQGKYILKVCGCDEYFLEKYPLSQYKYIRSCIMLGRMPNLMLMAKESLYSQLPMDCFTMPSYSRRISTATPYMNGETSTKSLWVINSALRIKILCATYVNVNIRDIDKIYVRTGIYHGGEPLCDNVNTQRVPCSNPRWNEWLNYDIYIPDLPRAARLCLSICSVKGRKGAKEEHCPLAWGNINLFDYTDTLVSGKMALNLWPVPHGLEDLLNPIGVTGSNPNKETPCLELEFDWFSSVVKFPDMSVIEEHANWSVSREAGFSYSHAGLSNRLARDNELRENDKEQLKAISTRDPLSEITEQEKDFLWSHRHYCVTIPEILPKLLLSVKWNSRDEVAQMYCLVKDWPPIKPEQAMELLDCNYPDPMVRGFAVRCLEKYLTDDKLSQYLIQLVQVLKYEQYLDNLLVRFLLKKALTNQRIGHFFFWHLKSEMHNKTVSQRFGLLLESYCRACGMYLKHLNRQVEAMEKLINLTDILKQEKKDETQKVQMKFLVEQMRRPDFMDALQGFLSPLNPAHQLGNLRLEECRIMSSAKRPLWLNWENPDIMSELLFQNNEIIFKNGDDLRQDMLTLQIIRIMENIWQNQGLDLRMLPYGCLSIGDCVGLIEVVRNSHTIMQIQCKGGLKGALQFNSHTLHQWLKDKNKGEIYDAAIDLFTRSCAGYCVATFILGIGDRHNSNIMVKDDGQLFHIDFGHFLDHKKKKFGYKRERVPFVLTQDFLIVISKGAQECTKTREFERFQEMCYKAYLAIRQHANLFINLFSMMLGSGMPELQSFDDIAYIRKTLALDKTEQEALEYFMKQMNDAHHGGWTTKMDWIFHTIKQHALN
Chain of PI3 kinase alpha (P27986 whole entry partner): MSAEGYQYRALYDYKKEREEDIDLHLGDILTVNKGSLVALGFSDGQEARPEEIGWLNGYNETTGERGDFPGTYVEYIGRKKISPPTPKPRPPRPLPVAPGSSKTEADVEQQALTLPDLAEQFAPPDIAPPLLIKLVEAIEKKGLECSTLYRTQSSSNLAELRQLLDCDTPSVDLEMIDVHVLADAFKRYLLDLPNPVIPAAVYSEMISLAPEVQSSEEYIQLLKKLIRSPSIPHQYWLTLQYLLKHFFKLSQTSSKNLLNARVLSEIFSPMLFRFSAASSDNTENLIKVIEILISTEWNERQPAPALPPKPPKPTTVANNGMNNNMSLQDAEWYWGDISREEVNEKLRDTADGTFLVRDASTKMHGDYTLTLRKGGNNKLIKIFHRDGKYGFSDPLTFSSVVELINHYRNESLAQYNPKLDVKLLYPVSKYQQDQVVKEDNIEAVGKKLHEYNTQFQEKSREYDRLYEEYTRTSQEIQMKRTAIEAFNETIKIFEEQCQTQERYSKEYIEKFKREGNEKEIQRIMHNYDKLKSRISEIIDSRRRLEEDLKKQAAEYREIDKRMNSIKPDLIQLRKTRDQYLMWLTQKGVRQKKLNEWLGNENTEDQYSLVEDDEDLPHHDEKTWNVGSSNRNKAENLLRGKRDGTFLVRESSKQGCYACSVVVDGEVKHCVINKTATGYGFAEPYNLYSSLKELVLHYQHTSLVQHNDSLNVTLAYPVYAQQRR

SMILES | IC50 [1] [µM] | EC50 [2] [µM]
Nc1ncc(-c2cc(Nc3ccnc4cc(C(F)(F)F)ccc34)nc(N3CCOCC3)n2)cn1 [Compound 409] | < 1 | < 1
Nc1ncc(-c2cc(Nc3ccnc4ccc(C(F)(F)F)cc34)nc(N3CCOCC3)n2)cn1 [Compound 410] | < 1 | < 10
Nc1ncc(-c2cc(N3CCCc4ccccc43)nc(N3CCOCC3)n2)cn1 [Compound 411] | < 1 | < 10
Nc1ncc(-c2cc(Nc3ccc4c(c3)OCC(=O)N4)nc(N3CCOCC3)n2)cn1 [Compound 412] | < 1 | < 1
Nc1ncc(-c2cc(Nc3ccc4c(c3)NC(=O)CO4)nc(N3CCOCC3)n2)cn1 [Compound 413] | < 1 | < 10
N#Cc1cc(-c2ccc(N)nc2)nc(N2CCOCC2)n1 [Compound 415] | < 1 | < 25
N#Cc1cc(N)ncc1-c1cc(-c2cccnc2F)nc(N2CCOCC2)n1 [Compound 417] | < 1 | < 25
N#Cc1cnc(N2CCOCC2)nc1-c1cnc(N)nc1 [Compound 418] | < 1 | < 25
Nc1ncc(-c2nc(N3CCOCC3)ncc2C(=O)N2CCNC(=O)C2)cn1 [Compound 427] | < 10 | < 25
CN1CCN(C(=O)c2cnc(N3CCOCC3)nc2-c2cnc(N)nc2)CC1 [Compound 428] | < 10 | < 25
COC(=O)c1cnc(N2CCOCC2)nc1-c1cnc(N)nc1 [Compound 431] | < 1 | < 25
CC(C)Oc1ccnc(Nc2cc(-c3cnc(N)cc3C(F)(F)F)nc(N3CCOCC3)n2)c1 [Compound 432] | < 1 | < 10
Nc1ccc(-c2cc(Nc3cc(F)ccc3F)nc(N3CCOCC3)n2)cn1 [Compound 436] | < 1 | < 10
N#Cc1cccc(Nc2cc(-c3ccc(N)nc3)nc(N3CCOCC3)n2)c1 [Compound 437] | < 1 | < 10
Nc1ccc(-c2cc(Nc3ccc4ccccc4n3)nc(N3CCOCC3)n2)cn1 [Compound 438] | < 1 | < 10
Nc1ccc(-c2cc(Nc3cccc(F)c3)nc(N3CCOCC3)n2)cn1 [Compound 439] | < 1 | < 10
Nc1ccc(-c2cc(Nc3ccccc3F)nc(N3CCOCC3)n2)cn1 [Compound 440] | < 1 | < 10
N#Cc1ccccc1Nc1cc(-c2ccc(N)nc2)nc(N2CCOCC2)n1 [Compound 441] | < 1 | < 10
COc1ccc(Nc2cc(-c3ccc(N)nc3)nc(N3CCOCC3)n2)cc1 [Compound 442] | < 1 | < 10

SMILES | IC50 [1] [µM] | EC50 [2] [µM]
Nc1cc(C(F)(F)F)c(-c2cc(Nc3ccc4c(c3)OCCO4)nc(N3CCOCC3)n2)cn1 [Compound 446] | < 1 | < 25
Nc1cc(C(F)(F)F)c(-c2cc(Nc3ccncc3)nc(N3CCOCC3)n2)cn1 [Compound 447] | < 1 | < 25
COc1ncccc1Nc1cc(-c2ccc(N)nc2)nc(N2CCOCC2)n1 [Compound 448] | < 1 | < 10
N#Cc1ccccc1Nc1cc(-c2cnc(N)nc2)nc(N2CCOCC2)n1 [Compound 449] | < 1 | < 10
Cc1cc(Nc2cc(-c3cnc(N)[nH]c3=O)nc(N3CCOCC3)n2)ccn1 [Compound 451] | < 1 | < 10
COC(=O)N1CCC[C@@H](Oc2cc(-c3cnc(N)cc3C(F)(F)F)nc(N3CCOCC3)n2)C1 [Compound 452] | < 1 | < 10
CC(=O)N1CCC[C@@H](Oc2cc(-c3cnc(N)cc3C(F)(F)F)nc(N3CCOCC3)n2)C1 [Compound 453] | < 1 | < 10
COC(=O)N1CCC[C@H](Oc2cc(-c3cnc(N)cc3C(F)(F)F)nc(N3CCOCC3)n2)C1 [Compound 454] | < 1 | < 10
CC(=O)N1CCC[C@H](Oc2cc(-c3cnc(N)cc3C(F)(F)F)nc(N3CCOCC3)n2)C1 [Compound 455] | < 1 | < 10
CC(C)(C)OC(=O)N1CCC(Oc2cc(-c3cnc(N)cc3C(F)(F)F)nc(N3CCOCC3)n2)CC1 [Compound 456] | < 1 | < 10
CC(C)C(=O)N1CCC(Oc2cc(-c3cnc(N)cc3C(F)(F)F)nc(N3CCOCC3)n2)CC1 [Compound 458] | < 1 | < 10
CC(C)OC(=O)N1CCC(Oc2cc(-c3cnc(N)cc3C(F)(F)F)nc(N3CCOCC3)n2)CC1 [Compound 460] | < 1 | < 10
CS(=O)(=O)N1CCC(Oc2cc(-c3cnc(N)cc3C(F)(F)F)nc(N3CCOCC3)n2)CC1 [Compound 461] | < 1 | < 10
Nc1ncc(-c2ccnc(N3CCOCC3)n2)c(=O)[nH]1 [Compound 462] | < 1 | < 10
Nc1ncc(-c2ccnc(N3CCOCC3)n2)c(N)n1 [Compound 463] | < 1 | < 25
Nc1ncc(-c2cc(Cl)nc(N3CCOCC3)n2)c(N)n1 [Compound 464] | < 1 | < 25
N#Cc1cc(-c2cnc(N)nc2C(F)(F)F)nc(N2CCOCC2)n1 [Compound 465] | < 1 | < 10
Nc1cc(C(F)(F)F)c(-c2ccnc(N3CCOCC3)n2)cn1 [Compound 466] | < 1 | < 25
Nc1cc(C(F)(F)F)c(-c2cc(Cl)nc(N3CCOCC3)n2)cn1 [Compound 467] | < 1 | < 25

SMILES | IC50 [1] [µM] | EC50 [2] [µM]
Cc1nc(N)ncc1-c1nc(N2CCOCC2)nc(Cl)c1C [Compound 468] | < 1 | < 25
Nc1ncc(-c2cc(C(F)(F)F)nc(N3CCOCC3)n2)cn1 [Compound 472] | < 1 | < 10
Nc1ncc(-c2nc(N3CCOCC3)ncc2C(F)(F)F)cn1 [Compound 474] | < 1 | < 25
COc1cncc(-c2nc(N3CCOCC3)nc(-c3cnc(N)nc3)c2C)c1 [Compound 475] | < 1 | < 10
COc1ccc(Nc2cc(-c3cnc(N)nc3C)nc(N3CCOCC3)n2)cn1 [Compound 476] | < 1 | < 10
Cc1nc(N)ncc1-c1cc(Nc2ccc3c(c2)OCCO3)nc(N2CCOCC2)n1 [Compound 477] | < 1 | < 10
Cc1nc(N)ncc1-c1ccnc(N2CCOCC2)n1 [Compound 478] | < 1 | < 25
COc1ccc(Nc2nc(N3CCOCC3)nc(-c3cnc(N)nc3)c2C)cn1 [Compound 480] | < 1 | < 10
Cc1c(Nc2ccc3c(c2)OCCO3)nc(N2CCOCC2)nc1-c1cnc(N)nc1 [Compound 481] | < 1 | < 1
Cc1cnc(N2CCOCC2)nc1-c1cnc(N)nc1 [Compound 482] | < 1 | < 10
Cc1c(Cl)nc(N2CCOCC2)nc1-c1cnc(N)nc1 [Compound 483] | < 1 | < 25
Cc1c(-c2cnc(N)nc2)nc(N2CCOCC2)nc1-c1cnc(N)nc1 [Compound 484] | < 1 | < 10
CC(C)N1CCN(c2ccc(Nc3cc(-c4cnc(N)cc4C(F)(F)F)nc(N4CCOCC4)n3)cn2)CC1 [Compound 488] | < 1 | < 10
Nc1cc(C(F)(F)F)c(-c2cc(Nc3cnc4ccc(OCCN5CCCC5)cc4c3)nc(N3CCOCC3)n2)cn1 [Compound 489] | < 1 | < 10
CC(C)(C)OC(=O)CNc1ccc(Nc2cc(-c3cnc(N)cc3C(F)(F)F)nc(N3CCOCC3)n2)cn1 [Compound 491] | < 1 | < 25
COc1ccc2cc(Nc3cc(-c4ccc(N)nc4)nc(N4CCOCC4)n3)cnc2c1 [Compound 494] | < 1 | < 25
Nc1ncc(-c2cc(Nc3cnc4ccc(OC(F)(F)F)cc4c3)nc(N3CCOCC3)n2)cn1 [Compound 495] | < 1 | < 25
Nc1ccc(-c2cc(Nc3ccc(NCCN4CCCC4)nc3)nc(N3CCOCC3)n2)cn1 [Compound 497] | < 1 | < 10
CN(C)c1nc2ccccc2cc1-c1cc(-c2ccc(N)nc2)nc(N2CCOCC2)n1 [Compound 500] | < 1 | < 10
